Assay results reported in US6641841B2, “Tablet composition” (Ajinomoto Co., Inc., priority 1996, dated 2003).

Columns and labels:
[1] = Bioavailability of compound [1] taken orally before or after a meal; assay type: in vivo
blood sugar level = conditions: taken orally; cited from earlier work

For `CC(C)[C@H]1CC[C@H](C(=O)N[C@H](Cc2ccccc2)C(=O)O)CC1` [compound [1], N-(trans-4-isopropylcyclohexanecarbonyl)-D-phenylalanine], the bioavailability [1] is given as “lowered” and the “effect of lowering the blood sugar level” value (blood sugar level) is given as “excellent effect of lowering the blood sugar level”.
